We go through 102 molecules from the OPERA property sets (Mansouri et al. 2018).

Structures are written as SMILES.

In general, logP refers to the decadic logarithm of the partition coefficient of the neutral form, usually between octanol and water. A lower logP goes with a more hydrophilic compound. `O=C1CC(Sc2ccccn2)N1` (configuration not stated) returned a logP of 0.61.
For `O=C(Oc1ccccc1)c1ccccc1` the value was 3.59; for `C=CCCCCCC`, 4.57; for `CC(=O)Nc1ccc(S(=O)(=O)F)cc1`, 2.17.
`c1ccc(Oc2ccccn2)cc1` had a logP of 2.39.
Molecule `O=C(O)c1cc(Cl)cc(Cl)c1` came in with a logP of 3.
Next, `COC(=O)C(CC(C)C)NC(C)=O` (configuration not stated): 0.84; `CC1(O)CC23CC(O)C4(O)C(CC(O)C4(C)C)C(C)(O)C2CCC1C3O` (configuration not stated): 0.27; `CC(C)N(Cc1cccnc1)C(C)C`: 2.27.
Next, `Nc1ccccc1-c1ccccc1`: 2.84; `CNCCN(C)C`: -0.2; `CCN(CC)c1ccccc1`: 3.31.
For the molecule `COC(F)(F)C(Cl)Cl`, the logP came out at 2.21.
Molecule `Clc1ccccn1` yielded a logP of 1.22.
In the case of `O=C(O)Cc1c(Cl)ccc(Cl)c1Cl`, the logP was determined as 3.2.
For `CCC(=O)C1(c2cccc(OC(=O)c3ccccc3)c2)CCN(C)CC1` the value was 3.03; for `COc1ccc(-c2nc3ccncc3n2C)c(OC)c1`, 2.68.
In turn, `NS(=O)(=O)c1cccc(Cl)c1` displayed a logP of 1.29.
`CN=Cc1ccccc1`: the logP came to 1.64.
Regarding `NC=O`, the logP is -1.51.
With `NC(=O)C(=Cc1cccc(F)c1)C(N)=O`, the logP was determined as 0.1.
Next, `Cc1cccc(C(N)=O)c1`: 1.18; `CC(C)c1cnc([N+](=O)[O-])n1C`: 1.09; `CCCCN(CCCC)N=O`: 2.63.
Next, `Clc1ccc(-c2ccc(Cl)c(Cl)c2Cl)c(Cl)c1Cl`: 7.31; `CC(Oc1cc(Cl)c(Cl)cc1Cl)C(=O)O` (configuration not stated): 3.8; `CCCOc1cn[nH]c1`: 1.42.
For `COc1ccc(NS(=O)(=O)c2ccc(N)cc2)cc1` the value was 1.51; for `NNC(=O)c1ccc([N+](=O)[O-])cc1`, 0.35; for `CCC1(CC)C(=O)NC(=O)NC1=O`, 0.65.
In turn, `CCCCC(=O)O` yielded a logP of 1.39.
Consider `Cc1cc2c(cc1C)C(=O)C=CC2=O`, for which the logP came out at 2.49.
Next, `Cc1ncc([N+](=O)[O-])n1CCS(C)(=O)=O`: -0.82; `O=C(O)CCCCCN1C(=O)C=CC1=O`: 1.15.
`CCCC(=O)Nc1ccccc1` came in with a logP of 2.05.
Regarding `NC(=O)Cn1ccnc1[N+](=O)[O-]`, the logP was -1.22.
Molecule `CCc1cccs1` came in with a logP of 2.87.
Next, `CCc1cccc(N2C(=O)CCC2=O)c1`: 1.04.
Next, `O=C(O)COc1cccc(O)c1`: 0.76.
Next, `c1cnc2[nH]ccc2c1`: 1.82.
Molecule `C[C@@H]1C[C@@]2(C)[C@@H](CC[C@@H]3[C@@H]2CC[C@]2(C)[C@@H](O)CC[C@@H]32)CC1=O` returned a logP of 3.99.
For `CN(C)C(N(C)C)=S(I)c1ccc(C(=O)O)cc1` (configuration not stated) the value was -1.28; for `CCCNc1nc(NCC)nc(SC(F)F)n1`, 3.8.
As for `O=Cc1ccc2cccccc1-2`, the logP came out at 2.64.
On to `CC(=O)Oc1cccc2cccnc12`, for which the log partition coefficient (logP) stood at 2.03.
In turn, `NS(=O)(=O)c1ccc([N+](=O)[O-])cc1` returned a logP of 0.64.
For `Cc1cc(NC(N)=O)ccc1Br` the value was 2.49; for `CC(O)C(C)O` (configuration not stated), -0.92.
The molecule `CCNc1nc(Cl)nc(NCC)n1` showed a logP of 2.18.
For `Cc1ccccc1C=C[N+](=O)[O-]` the value was 2.63.
For `Nc1ccc(C(=O)O)c(F)c1` the value was 1.29.
Next, `O=C(CCNNC(=O)c1ccncc1)NCc1ccccc1`: 0.87; `O=C(O)Cn1nc2ccccc2n1`: -1.64; `NC(=O)C(c1ccccc1)c1ccccn1` (configuration not stated): 0.83.
For the molecule `CCOC(=O)CCl`, the logP worked out at 0.94.
Next, `Cl[C@H]1[C@H](Cl)[C@@H](Cl)[C@@H](Cl)[C@H](Cl)[C@H]1Cl` (racemic): 3.72.
For `CCC1(CC)C(=O)NC(=O)N(C(C)C)C1=O` the value was 2.36; for `S=C=Nc1cccc2ccccc12`, 4.34; for `CNc1ccccc1C`, 2.16.
Next, `COc1cc(N)c(Cl)cc1C(=O)NC1CCN(Cc2ccccc2)CC1`: 3.58; `O=C1C=CC(=O)N1`: -0.29.
Regarding `CCCCCOC(N)=O`, the logP turned out to be 1.35.
With `O=C(CCBr)N1CCN(C(=O)CCBr)CC1`, the logP came out at 0.42.
For `Clc1ccc(-c2cc(Cl)ccc2Cl)c(Cl)c1` the value was 6.22.
Next, `c1ccc(Cc2ccncc2)cc1`: 2.62; `c1ccc2[nH]cnc2c1`: 1.32; `CCCCCl`: 2.64.
Next, `O=[N+]([O-])c1cccc(Cl)c1`: 2.46; `COc1cccc2cccnc12`: 1.84.
In turn, `Cc1ccc(C)cc1` displayed a logP of 3.15.
For `CNC(=O)Oc1cccc(Cl)c1` the value was 2.03; for `CCC(C)OC(=O)C(C(=O)OC(C)CC)=C1SCCS1` (configuration not stated), 4.53.
As to `C1COCCO1`, the logP was -0.27.
`C=CCOc1ccccc1Cc1cnc(N)nc1N` gave a logP of 2.31.
As for `CCCC(=NOCC)C1C(=O)CC2(CCC(C)C2)OC1=O` (configuration not stated), the logP amounted to 3.66.
For `CC(=O)OCCBr`, the logP stood at 1.11.
Take `Nc1cccc([N+](=O)[O-])c1N`: the logP amounted to 1.27.
Next, `COC(=O)c1ccccn1`: 0.36; `N#CCCc1ccccc1`: 1.72.
`Nc1ccc(S(=O)(=O)c2ccc(N)cc2)cc1` came in with a logP of 0.97.
Molecule `CC12CCC(=O)C=C1CCC1C2C(O)CC2(C)C1CCC2(O)C(=O)COC(=O)CCCCCC(N)=O` (configuration not stated) had a logP of 2.3.
Next, `O=C(O)c1cc([N+](=O)[O-])ccc1Cl`: 2.03; `NS(=O)(=O)c1ccc(SCCO)s1`: 0.38; `OCC(Cl)(Cl)Cl`: 1.42.
For `Cc1cc(C)ncn1` the value was 0.62; for `NC(=O)c1cccc2[nH]ccc12`, 0.66.
Consider `Nc1ncnc2c1ncn2[C@@H]1O[C@@H]2COP(=O)(O)O[C@H]2[C@H]1O`, for which the logP was -2.96.
`CCN(CC)CCN`: the logP came out at 0.21.
With `CCOc1ccccc1O`, the logP was 1.68.
Next, `Clc1cccc(Cl)c1`: 3.53; `c1ccc(-c2ccc(NCCN3CCOCC3)nn2)cc1`: 1.85.
Next, `CN(C)C(=O)Nc1cccc(F)c1`: 1.37; `NC(=O)C(Cl)(Cl)Cl`: 1.04; `N#Cc1c[nH]c(=O)[nH]c1=O`: -0.93.
The molecule `CNC(=O)Oc1ccc(Cl)c(C)c1` returned a logP of 2.57.
Turning to `COc1cccc(S(I)=C(N(C)C)N(C)C)c1` (configuration not stated), the logP was -0.5.
The molecule `Cc1ccc(NC2=NCCN2)c(Cl)c1` had a logP of 1.8.
`CCCCCOc1ccc(O)cc1` showed a logP of 3.5.
`O=C(O)COc1ccc(Cl)cc1Cl`: the logP amounted to 2.81.
Next, `c1ccsc1`: 1.81.
Next, `COC(=O)Cn1ccnc1[N+](=O)[O-]`: -0.09; `CNc1cnn(-c2cccc(C(F)(F)F)c2)c(=O)c1Cl`: 2.3.
